This is an account of results in patent US11582971B2, “Crystalline forms of deltamethrin and methods of use thereof” (priority 2019, dated 2023).

Series [1] relates to fruit flies (Drosophila melanogaster). Nature of the series: Polymorph lethality, dust, residual exposure method, fruit flies. The class given is in vivo. The conditions noted are these: for average knockdown time / median knockdown time (KT50): 2 mg deltamethrin dust; for average knockdown time / median knockdown time (KT50) / longest survival (no individual survived more than) / onset of hyperactivity: female fruit flies; for longest survival (no individual survived more than) / onset of hyperactivity: 2 mg dust in 35 mm Petri dish. As for the experimental part:
(§1) The effect of deltamethrin polymorphs on fruit flies was determined by the residual exposure method. Bruck, D. J.; Bolda, M.; Tanigoshi, L.; Klick, J.; Kleiber, J.; DeFrancesco, J.; Gerdeman, B.; Spitler, H. Laboratory and field comparisons of insecticides to reduce infestation of Drosophila suzukii in berry crops. Pest. Manag. Sci. 2011, 67, 1375-1385. Lethality assays were performed for each powder sample as well as a control. Female fruit flies (Drosophila melanogaster) were temporarily anesthetized by CO2 exposure, then transferred to the 35 mm diameter petri dishes with deltamethrin dust. The dishes were covered with their mating top and the motion of the fruit flies was recorded to establish knockdown time (i.e., the time after which there was no further translational motion).
The lethalities of the two crystalline forms of deltamethrin were compared by exposing fruit flies (Drosophila melanogaster), a well-established model for pesticide development (Schneider, D. Using Drosophila as a Model Insect. Nat. Rev. Genet. 2000, 1, 218-226), to 2 mg of the respective dusts (containing […] deltamethrin Form I or Form II) dispersed evenly in 35 mm-diameter plastic Petri dishes. Each trial was performed in triplicate for each crystalline form, as well as a control.
The motions of fruit flies were monitored by a video camera. A custom designed video process programmer was used to record the onset of hyperactivity and to track the time required for the expiration of the flies, as measured by knockdown. […] (FIG. 5A). Both the onset of hyperactivity and death occurred much later for deltamethrin Form I-exposed flies.
Lethality was deduced by the standard measurement of knockdown time, defined as time when a fly is immobile in a supine or sideways position for at least one second (i.e., no translational motion). Lindquist, A. W.; Jones, H. A.; Madden, A. H. DDT Residual-type sprays as affected by light. J. Econ. Entomol. 1946, 39, 55-59. Paralyzed flies never recover.
FIGS. 5A and 5B depict the graphs of the lethality comparison of the two forms of deltamethrin, in terms of fly velocities and knockdown times. The corresponding average knockdown times and median knockdown times (KT50) are denoted. The median knockdown time (KT50) for each polymorph was determined from multiple trials using twenty female flies each. KT50 is defined as the time required to render 50 percent of the insects motionless. Kawada, H.; Dida, G. O.; Ohashi, K.; Komagata, O.; Kasai, S.; Tomita, T.; Sonye, G.; Maekawa, Y.; Mwatele, C.; Njenga, S. M.; Mwandawiro, C; Minakawa, N.; Takagi, M. Multimodal pyrethroid resistance in malaria vectors, Anopheles gambiae s.s., Anopheles arabiensis, and Anopheles funestus s.s. in Western Kenya. PLoS One 2011, 6, No. e22574; Limoee, M.; Ladonni, H.; Enayati, A. A.; Vatandoost, H.; Aboulhasani, M. Detection of pyrethroid resistance and cross resistance to DDT in seven field-collected strains of the German cockroach, Blattella germanica (L.) (Dictyoptera: Blattellidae). J Biol. Sci. 2006, 6, 382-387. The average knockdown times for 2 mg deltamethrin dusts with Form I and Form II were 123 minutes and 21 minutes, respectively. The KT50 values were 113 minutes and 20 minutes, respectively (FIG. 5B).

The test system of series [2] is Drosophila melanogaster. Nature of the series: Polymorph lethality, polyethylene glycol coated crystalline thin film. The class given is in vivo. The conditions noted are these: for average knockdown time / median knockdown time (KT50): polyethylene glycol coated crystalline film (2.2*2.2 cm^2). From the text:
FIGS. 7A-7B are a lethality comparison of the two forms of deltamethrin. FIG. 7A is a graph depicting the velocities of fruit flies exposed to crystalline films (2.2*2.2 cm^2) of deltamethrin Form I and II; FIG. 7B is a comparison of Drosophila melanogaster knockdown times on crystalline films (2.2*2.2 cm^2) of deltamethrin Form I and Form II.
The knockdown times for neat thin films are too short to allow a valid comparison of their lethality. Therefore, thin films of deltamethrin Form I and Form II were prepared and partially coated by nebulized polyethylene glycol, producing islands of inert material with a small fraction of the deltamethrin film exposed (FIG. 7B). […] The corresponding average knockdown times and median knockdown times (KT50) are denoted. The average knockdown times for polyethylene glycol coated deltamethrin Form I and Form II crystalline film were 385 minutes and 70 minutes, respectively. The KT50 values were 400 minutes and 61 minutes, respectively (FIG. 7B).
This confirms that Form I dust is transformed to Form II dust by the microwave heating treatment.

Series [3] has as its system yellow fever mosquitos (Aedes aegypti). Nature of the series: Polymorph lethality, dust, residual exposure method, Aedes mosquitoes. The note with it: for average knockdown time / median knockdown time (KT50): 2 mg deltamethrin dust. It is filed as in vivo. As for the experimental part: as §1, with “on yellow fever mosquitos (Aedes aegypti)” for “on fruit flies”, “each dust” for “each powder”, “Female Aedes mosquitoes” for “Female fruit flies (Drosophila melanogaster)”, “the 90” for “the 35”, “the mosquitoes” for “the fruit flies”
The lethalities of the two crystalline forms of deltamethrin were compared by exposing yellow fever mosquitos (Aedes aegypti) to 2 mg of the respective dusts (containing […] deltamethrin Form I or Form II) dispersed evenly in 90 mm-diameter plastic Petri dishes. Each trial was performed in duplicate for each crystalline form, as well as a control.
The motions of mosquitoes were monitored by a video camera. A custom designed video process programmer was used to record the onset of hyperactivity and to track the time required for the expiration of the mosquitoes, as measured by knockdown. No Form I-exposed fly survived more than 300 minutes. […] (FIG. 6A). The death occurred much later for deltamethrin Form I-exposed mosquitoes.
Lethality was deduced by the standard measurement of knockdown time, defined as time when a mosquito is immobile in a supine or sideways position for at least one second (i.e., no translational motion). Lindquist, A. W.; Jones, H. A.; Madden, A. H. DDT Residual-type sprays as affected by light. J. Econ. Entomol. 1946, 39, 55-59. Paralyzed flies never recover.
FIGS. 6A and 6B depict the graphs of the lethality comparison of the two forms of deltamethrin, in terms of mosquito velocities and knockdown times. The corresponding average knockdown times and median knockdown times (KT50) are denoted. The median knockdown time (KT50) for each polymorph was determined from multiple trials using twenty female mosquitoes each. KT50 is defined as the time required to render 50 percent of the insects motionless. Kawada, H.; Dida, G. O.; Ohashi, K.; Komagata, O.; Kasai, S.; Tomita, T.; Sonye, G.; Maekawa, Y.; Mwatele, C.; Njenga, S. M.; Mwandawiro, C; Minakawa, N.; Takagi, M. Multimodal pyrethroid resistance in malaria vectors, Anopheles gambiae s.s., Anopheles arabiensis, and Anopheles funestus s.s. in Western Kenya. PLoS One 2011, 6, No. e22574; Limoee, M.; Ladonni, H.; Enayati, A. A.; Vatandoost, H.; Aboulhasani, M. Detection of pyrethroid resistance and cross resistance to DDT in seven field-collected strains of the German cockroach, Blattella germanica (L.) (Dictyoptera: Blattellidae). J. Biol. Sci. 2006, 6, 382-387. The average knockdown times for 2 mg deltamethrin Form I and Form II dust were 202 minutes and 22 minutes, respectively. The KT50 values were 192 minutes and 21 minutes, respectively (FIG. 6B).

Series [4] is described as follows: Phase behavior / thermodynamic stability of deltamethrin polymorphs. It is filed as physicochemical. As for the experimental part:
Thermodynamic stability of deltamethrin polymorphs was evaluated by the phase transformation behaviors and respective melting points. […] Rarely, transformation from Form II to Form I can be observed between crossed polarizers when spherulites of Form II are in contact with concomitant polycrystalline Form I (FIG. 4A, 4B). Form II fibers grow radially along their <010> direction. […] Upon phase transformation to Form I, the orientation of new grains become misaligned, resulting in a loss of observable birefringence. At room temperature the transformation can be observed by a moving growth front, which advances at a velocity of 0.3 μm/min.

The mark [5] stands for this setting: female Aedes aegypti, 2 mg dust in 90 mm Petri dish.

For `CC1(C)[C@H](C(=O)O[C@H](C#N)c2cccc(Oc3ccccc3)c2)[C@@H]1C=C(Br)Br` [Form I, (S)-cyano(3-phenoxyphenyl) methyl (1R,3R)-3-(2,2-dibromovinyl)-2,2-dimethylcyclopropane-1-carboxylate, reference compound], the results for the average knockdown time in series [1], in series [2] and in series [3] (female Aedes aegypti) were 123 min, 385 min and 202 min, respectively. Moreover, the “median knockdown time (KT50)” value in series [1] stood at 113 min; in series [2], 400 min; in series [3] (female Aedes aegypti), 192 min. Moreover, the “longest survival (no individual survived more than)” value in series [1] was at most 210 min; in series [3] (setting [5]), at most 300 min. In series [1], this molecule displayed an onset of hyperactivity of 40 min.

Take `CC1(C)[C@H](C(=O)O[C@H](C#N)c2cccc(Oc3ccccc3)c2)[C@@H]1C=C(Br)Br` [Form II, (S)-cyano(3-phenoxyphenyl) methyl (1R,3R)-3-(2,2-dibromovinyl)-2,2-dimethylcyclopropane-1-carboxylate]: the average knockdown time is 21 min in series [1], 70 min in series [2] and 22 min in series [3] (female Aedes aegypti). For the same molecule, the “median knockdown time (KT50)” value amounted to 20 min in series [1], 61 min in series [2] and 21 min in series [3] (female Aedes aegypti). The lethality ranking entry in series [1] (dust, fruit flies) is reported as “more lethal than Form I”; in series [3] (dust, Aedes aegypti), “more lethal than Form I”. The “longest survival (no individual survived more than)” value is at most 40 min in series [1] and at most 30 min in series [3] (setting [5]). For the same molecule, the onset of hyperactivity result in series [1] and in series [3] (setting [5]) was “as soon as they were exposed” throughout. Further, the “knockdown times, comparison of the forms” value in series [2] (thin films) is on record as “shorter for Form II than for Form I”. For the same molecule, in series [4] (crystalline film confined between glass slides, 6 months at room temperature), the “transformation of Form II to Form I on storage” value is on record as “did not transform to Form I”. The “room temperature stability ranking” value in series [4] (room temperature) was “Form I> Form II”. Further, the “velocity of the growth front of the Form II to Form I transformation” value in series [4] (room temperature, Form II spherulites in contact with polycrystalline Form I) is listed as 0.3 μm/min.
